This is an account of results in PubChem BioAssay AID179 (DTP/NCI, 2004).

This assay deals with CEM cells HIV-1 protection, formazan growth assay. The experiment in a line: NCI AIDS Antiviral Assay. The settings on record: for pIC50: measured here: growth of uninfected CEM cells. In a few lines:
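Soluble formazan readout of cell growth; CEM cells ± HIV-1; 5 drug concs. ≥50% protection → retest; ≥50% again = moderately active; reproducible 100% = confirmed active.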

pEC50, pIC50: −log10 of the molar value. Several values for one entry are separate records, joined by “and”; a condition that tells them apart may be missing. Identical values can stand only once. Activity calls are given as the source filed them.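 Rule for the calls: active = compounds giving half or more protection of infected cells from virus-caused growth loss, again on retest; inactive = the rest.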

For the molecule `Cc1cc(Cl)cc2c1NC(=O)C2(O)CC(=O)c1ccc(F)cc1` (stereo not drawn), the pEC50 – broadly, the negative decadic logarithm of the EC50, by convention in mol/L – was under 4.81 and the pIC50 (usually the negative decadic logarithm of the IC50, by convention in mol/L) was under 4.81.

For `NS(=O)(=O)c1ccc(NC(=O)Nc2ccc(F)cc2)cc1`, the pEC50 was under 3.70 and the negative logarithm of the IC50 (pIC50) is 4.13.

Consider `OCc1cc2c(cc1CO)OCC2`, for which the result was inactive.

With `Cc1cc(C)cc(N(C2C3CCC(C)(C2O)C3(C)C)S(=O)(=O)c2ccccc2)c1` (stereo not drawn), the pEC50 is under 3.70 and the pIC50 was 4.61.

Regarding `O=c1[nH]n(CCc2ccccc2CCl)c2ccc([N+](=O)[O-])cc12`, the pEC50 was under 3.70 and the pIC50 was 4.30.

As to `CCCNC(=O)c1nc(SC)sc1NC(=O)c1ccc(OC)cc1`, the pEC50 was under 3.70 and the pIC50 was under 3.70.

For `COC(=O)C12C3C=CC(O3)C1C1C=CC2O1` (stereo not drawn), the result was inactive.

With `CCOC(=O)C(C)[P+](c1ccccc1)(c1ccccc1)c1ccccc1` (stereo not drawn), the pEC50 is under 3.70 and the pIC50 is 5.51.

Take `O=C(Nc1ccc(-c2cccs2)oc1=O)c1cnccn1`: the pEC50 is under 3.82 and the pIC50 is under 3.82.

For the molecule `C=C1C(=O)OC2C3C(=C)[C@@H](OC(C)=O)CC3C(C)=CC(OC(=O)C(C)(OC(C)=O)C(C)OC(C)=O)[C@@H]12` (stereo partly drawn), the pEC50 is under 3.70 and the pIC50 was 4.99.

Turning to `COc1cccc(C2ON=C(c3ccccc3)N2C23CC4CC(CC(C4)C2)C3)c1` (stereo not drawn), the pEC50 was under 3.70 and the pIC50 was 4.23.

Consider `Cc1c(CN)c(C)c(CN)c(C)c1CN`, for which the pEC50 was under 3.70 and the pIC50 is 4.01.

`CCCNC(=O)Sc1ccccc1C(=O)N[C@H](C)C(N)=O` had a pEC50 of under 5.33.

In the case of `CC1=CC(=O)N(n2c(-c3ccccc3)n[nH]c2=O)C1=O`, the pEC50 was under 3.70 and the pIC50 was under 3.70.

Take `O=C(NP(=O)(N1CC1)N1CC1)c1cc(I)ccc1I`: the pEC50 is under 3.70 and the pIC50 was 5.40.

As for `OC1C=CC2C(CC1)C1(c3ccccc3)OC2(c2ccccc2)c2ccccc21` (stereo not drawn), the outcome was inactive.

For `N=C(/C=C/c1ccc(-c2cn3cc(/C=C/C(=N)N4CCCC4)ccc3n2)cc1)N1CCCC1`, the pEC50 was 4.60 and the negative-log IC50 (pIC50) is 4.19.

For `O=c1ccn([C@@H]2O[C@@H]3COC(c4c(F)cccc4Cl)N(O)[C@@H]3C2O)c(=O)[nH]1` (stereo partly drawn), the pEC50 was under 3.70 and the pIC50 was under 3.70.

For `CN1C(=O)CC2C(=O)N(Cc3ccccc3)C(=O)C2C1=O` (stereo not drawn), the pEC50 is under 3.46 and the pIC50 is under 3.46.

On to `COc1cc(C2c3cc4c(c(O)c3C[C@H]3COC(=O)[C@@H]23)OCO4)cc(OC)c1O` (stereo partly drawn), for which the pEC50 is under 3.70 and the pIC50 is 7.20.

Take `C1CCN2CC3CC(CN4CCCCC34)C2C1` (stereo not drawn): the pEC50 is under 3.12 and the negative-log IC50 (pIC50) was under 3.12.

For `CC[N+](C)(CC)CCC[N+]12CCC(CC1)CC2`, the pEC50 was under 3.20 and the pIC50 was under 3.20.

Consider `CN(C)CCCn1cnc2ncccc2c1=O`, for which the outcome was inactive.

In the case of `c1ccc(/C2=N\OCCCOc3ccccc32)cc1`, the pEC50 is under 3.70 and the pIC50 is under 3.70.

In the case of `Cc1ccc(C)c(NC(=O)C(=O)C2C(=O)N(c3ccccc3)N=C2N)c1` (stereo not drawn), the pEC50 was under 3.15 and the pIC50 was 3.20.

Regarding `CC1CCP(=O)(c2ccccc2)C1` (stereo not drawn), the pEC50 is under 2.89 and the pIC50 was under 2.89.

Turning to `COC(O)C(=O)c1ccc2c(c1)CC1(C2)Cc2cc3c(cc2C1=O)CCC3` (stereo not drawn), the pEC50 is under 3.70 and the pIC50 is 4.49.

`CN(C)C=Nc1c(I)cc(I)c(CCC(=O)O)c1I`: the pEC50 was under 3.70 and the pIC50 was under 3.70.

Consider `CCOC(=O)COc1ccc(OCC(=O)OCC)c2c1C(=O)CCCC2=O`, for which the result was inactive.

As to `COC12CC(=O)C(C(C)=O)=C(O)C1(C)c1c(OC(C)=O)c(C)c(O)c(C(C)=O)c1O2` (stereo not drawn), the pEC50 was under 3.22 and the pIC50 was 4.97.

`CN(C)CCCOCCn1c2c(c3ccccc31)CCCC2`: the pEC50 was under 3.70 and the negative-log IC50 (pIC50) was 4.49.

As for `Cn1c2c(c3ccccc31)CCN1C[C@@H]3CCCC[C@H]3C[C@@H]21`, the pEC50 is under 4.00 and the pIC50 was 5.79.

For the molecule `CN(C)CCCNC(=O)c1cc(NC(=O)c2cc(NC(=O)c3cc(NC(=O)c4cccc(C(=O)Nc5cc(C(=O)Nc6cc(C(=O)Nc7cc(C(=O)NCCCN(C)C)n(C)c7)n(C)c6)n(C)c5)n4)cn3C)cn2C)cn1C`, the pEC50 was under 4.00 and the pIC50 was under 4.00.

On to `CCO/C=C1\N=C(c2ccc(Cl)c(Cl)c2)OC1=O`, for which the pEC50 is under 3.90 and the pIC50 is under 3.90.

For `CCOC(=O)CC1(Cc2ccc(OCc3ccccc3)cc2)C(=O)OC(c2ccccc2)N1C(=O)c1ccccc1` (stereo not drawn), the pEC50 is under 3.70 and the pIC50 was under 3.70.

For `Cc1cc2c(CC(=O)O)[nH]nc2c(C(=O)O)c1C`, the pEC50 is under 3.00 and the pIC50 was under 3.00.

Regarding `O=C(Nc1ccc(Cl)cc1Cl)c1c/c(=N\O)c2ccc(O)cc2o1`, the result was inactive.

`CN1CCN(C)P1c1ccccc1`: the pEC50 was under 2.89 and the pIC50 is under 2.89.

Turning to `COc1cc(CC(=O)c2cc3c(cc2-c2ccccc2)OCO3)cc(OC)c1OC`, the pEC50 is under 4.05 and the negative-log IC50 (pIC50) is 4.62.

`Cc1cc2c(C(C)C)c(O)c(O)c3coc(/c1=c1/c(C)cc4c(C(C)C)c(=O)c(=O)c5coc1c45)c32`: the pEC50 is under 4.27 and the pIC50 is 5.05.

On to `O=C1[C@H](O)[C@@H]2CCC[C@@]23CCCN13`, for which the pEC50 was under 3.70 and the pIC50 was under 3.70.

Consider `O=c1c2ccc(Cl)cc2nc2n1OCC2`, for which the pEC50 is under 3.88 and the pIC50 was under 3.88.

Take `COC(=O)/C=C(/C(=O)OC)c1c(C)cc2c(C)cc(C)cc(C)c1-2`: the pEC50 was under 3.70 and the pIC50 is 4.97.

As for `C=CC1=CC(C)C[C@]1(O)C(=O)OC` (stereo partly drawn), the pEC50 was under 2.86 and the pIC50 was 3.15.

Turning to `COc1ccc2cc(C(C)C(=O)N3CCOC3=O)ccc2c1` (stereo not drawn), the pEC50 was under 3.70 and the pIC50 was under 3.70.

As for `O=C1c2ccccc2C(=O)N1CCc1ncc(-c2ccccc2)[nH]1`, the pEC50 was under 3.70 and the pIC50 is under 3.70.

As to `CC[C@@H](CCCCC1CC[C@H]2CC(=O)C[C@@H]12)OC` (stereo partly drawn), the pEC50 was under 3.70 and the pIC50 was 3.99.

Regarding `O=C1NC(Cc2ccc(O)cc2)C(=O)NC1Cc1ccc(O)cc1` (stereo not drawn), the pEC50 was under 4.00 and the pIC50 is under 4.00.

As for `CSc1nc(NC2OCC(OC(C)=O)C(OC(C)=O)C2OC(C)=O)c2c(n1)OCC2=O` (stereo not drawn), the outcome was inactive.

As to `CN(C)c1ccc(C=C2c3ccccc3-c3ccccc32)cc1`, the pEC50 is under 4.76 and the pIC50 is under 4.76.

Consider `COc1ccc(CN2CCCN(Cc3ccc(OC)cc3)C2c2ccccc2O)cc1`, for which the pEC50 is under 3.70 and the pIC50 is 4.30.

`COC(=O)C1(NC(=O)C(N)CC(=O)O)CC1(C)C` (stereo not drawn): the pEC50 is under 3.70 and the pIC50 was under 3.70.

For the molecule `COc1cc(C2c3[nH]c4ccc(F)cc4c3C[C@H]3COC(=O)N23)cc(OC)c1O` (stereo partly drawn), the pEC50 was under 3.70 and the pIC50 is 6.24.

Regarding `COc1cc([C@H]2c3cc(O)c(OC)cc3CC3C(=O)OCC32)ccc1O` (stereo partly drawn), the pEC50 was under 3.44 and the pIC50 was under 3.44.

`CN1N(c2ccccc2)C(=O)C2=NC=C(C(=O)c3ccccc3)C(=N)C21C` (stereo not drawn): the pEC50 was under 3.70 and the pIC50 was under 3.70.

With `CC1=C(C(=O)CC(=O)C(=O)Nc2ccccc2)Sc2ccccc2N1`, the pEC50 is under 3.75 and the pIC50 was under 3.75.

On to `CC(=O)N/C=C/c1cc(O)ccc1O`, for which the result was inactive.

Turning to `CC(=O)N(CN1C(=O)CCC1C(=O)O)c1ccccc1Cl` (stereo not drawn), the outcome was inactive.

On to `O=C1c2ccccc2C(=O)N1C/C=N/NS(=O)(=O)c1ccc(Cl)cc1`, for which the pEC50 was under 4.02 and the pIC50 is under 4.02.

Consider `CC(N)CNCC(C)N` (stereo not drawn), for which the pEC50 was under 3.70 and the pIC50 is under 3.70.

For the molecule `CCC1=CCN(c2ccc(C)cc2)OC1c1ccc(OC)cc1` (stereo not drawn), the pEC50 was under 4.49 and the pIC50 was under 4.49.

For `CC1(C)CCC2=C(O1)c1ccccc1C(=O)C2=O`, the pEC50 was under 3.70; the pIC50 was 6.04 and 5.97.

As for `CC(=O)Oc1ccc(-c2oc3c([C@H]4C=C(C)CC(c5ccc(OC(C)=O)cc5OC(C)=O)[C@@H]4C(=O)c4ccc(OC(C)=O)c(CC=C(C)C)c4OC(C)=O)c(OC(C)=O)cc(O)c3c(=O)c2CC=C(C)C)c(OC(C)=O)c1` (stereo partly drawn), the pEC50 was under 4.93 and the pIC50 was 5.13.

On to `CCCCC(C)(C/C=C/[C@@H]1[C@@H](C(O)CCCCCC(=O)OC)C(=O)C[C@H]1O[Si](C)(C)C(C)(C)C)O[Si](C)(C)C` (stereo partly drawn), for which the result was inactive.

For `Oc1ccc(-c2nn3c(CCCCCCCCc4nnc5sc(-c6ccc(O)cc6)nn45)nnc3s2)cc1`, the pEC50 is 3.84 and the pIC50 is under 3.70.

Take `N#CC1N(C(=O)c2ccc(F)cc2)c2ccccc2N1C(=O)c1ccc(F)cc1`: the pEC50 was under 3.70 and the pIC50 was 4.13.

With `O=C1C2C(C(=O)N1c1ccccc1)C1([N+](=O)[O-])C=C3c4ccccc4N(C(=O)c4ccccc4)C32C2C(=O)N(c3ccccc3)C(=O)C21` (stereo not drawn), the result was inactive.

Regarding `CC1N=C(c2ccccc2)OC1=O` (stereo not drawn), the pEC50 is under 3.70 and the pIC50 was under 3.70.

As to `CSCCCS/C1=C/CCCCCCCCCC1`, the pEC50 was under 3.70 and the pIC50 was under 3.70.

As to `O=c1ccnc(SSc2nccc(=O)[nH]2)[nH]1`, the pEC50 is under 3.70 and the pIC50 is under 3.70.

In the case of `Cc1ccc(Cc2n[nH]c(=O)n2-c2ccccc2)cc1`, the outcome was inactive.

`O=[N+]([O-])/C(C(Cl)=C(Cl)Cl)=C(/Cl)Sc1ccccc1`: the pEC50 is under 3.70 and the negative logarithm of the IC50 (pIC50) is 5.91.

With `O=c1[nH]c(O)c(/C=N/C(=S)Nc2ccccc2)c(=O)[nH]1`, the outcome was inactive.

Turning to `CNC1C(O)C(OC2C(N)CC(N)C(OC3OC(CN)=CCC3N)C2O)OCC1(C)O` (stereo not drawn), the result was inactive.
